Assay results taken from paper PMC6138237, “Machine intelligence decrypts β-lapachone as an allosteric 5-lipoxygenase inhibitor” (Chemical Science, 2018).
Where two headings read alike, the source gives them in different places.

Assays:
Format in all cases: biochemical
[1] = biological target: IRK (Homo sapiens, UniProt P06213); experiment: ExpresS Diversity Kinase Profile, Cerep (LANCE): IRK
[2] = biological target: JNK1 (Homo sapiens, UniProt P45983); experiment: ExpresS Diversity Kinase Profile, Cerep (LANCE): JNK1
Chain of JNK1 (P45983 whole entry): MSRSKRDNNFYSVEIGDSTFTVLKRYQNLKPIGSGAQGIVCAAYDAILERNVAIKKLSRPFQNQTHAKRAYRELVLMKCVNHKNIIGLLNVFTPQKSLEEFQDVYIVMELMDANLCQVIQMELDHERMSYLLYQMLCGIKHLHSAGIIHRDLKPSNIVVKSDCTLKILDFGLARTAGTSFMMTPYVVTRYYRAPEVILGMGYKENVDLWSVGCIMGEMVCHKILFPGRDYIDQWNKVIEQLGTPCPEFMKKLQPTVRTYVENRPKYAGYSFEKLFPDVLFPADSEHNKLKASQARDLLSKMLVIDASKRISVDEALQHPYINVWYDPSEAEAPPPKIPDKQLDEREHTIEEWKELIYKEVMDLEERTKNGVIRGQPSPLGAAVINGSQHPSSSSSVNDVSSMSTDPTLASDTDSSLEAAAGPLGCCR

[3] = biological target: T1, AurA (Homo sapiens, UniProt O14965); experiment: ExpresS Diversity Kinase Profile, Cerep (LANCE): AurA
T1 sequence (O14965 1-403): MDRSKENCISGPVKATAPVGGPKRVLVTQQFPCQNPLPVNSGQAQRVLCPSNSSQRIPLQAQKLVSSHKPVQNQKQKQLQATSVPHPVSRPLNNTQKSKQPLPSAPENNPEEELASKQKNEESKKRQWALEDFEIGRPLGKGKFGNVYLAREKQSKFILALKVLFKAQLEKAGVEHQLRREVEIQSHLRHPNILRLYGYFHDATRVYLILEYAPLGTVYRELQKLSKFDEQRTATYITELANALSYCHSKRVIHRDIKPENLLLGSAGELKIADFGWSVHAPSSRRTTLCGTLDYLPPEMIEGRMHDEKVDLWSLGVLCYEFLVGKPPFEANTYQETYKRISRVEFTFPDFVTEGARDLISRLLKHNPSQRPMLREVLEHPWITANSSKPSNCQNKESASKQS

[4] = biological target: Akt1/PKBα (Homo sapiens, UniProt P31749); experiment: ExpresS Diversity Kinase Profile, Cerep (LANCE): Akt1/PKBα; details: for inhibition at 150 µM: Akt1/PKBα, Flag: Interference
Chain of Akt1/PKBα (P31749 whole entry): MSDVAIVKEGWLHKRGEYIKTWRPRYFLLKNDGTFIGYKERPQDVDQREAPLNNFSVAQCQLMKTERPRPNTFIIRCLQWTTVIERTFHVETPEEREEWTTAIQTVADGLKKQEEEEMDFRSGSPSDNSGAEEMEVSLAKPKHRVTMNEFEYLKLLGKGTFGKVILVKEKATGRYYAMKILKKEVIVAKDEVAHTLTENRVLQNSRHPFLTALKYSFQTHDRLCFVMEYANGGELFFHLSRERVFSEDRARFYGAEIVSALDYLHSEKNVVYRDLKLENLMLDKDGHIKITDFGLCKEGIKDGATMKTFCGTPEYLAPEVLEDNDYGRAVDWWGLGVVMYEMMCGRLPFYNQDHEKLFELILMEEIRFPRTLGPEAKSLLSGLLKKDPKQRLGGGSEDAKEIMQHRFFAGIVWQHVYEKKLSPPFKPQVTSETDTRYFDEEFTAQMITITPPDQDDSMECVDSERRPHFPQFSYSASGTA

[5] = biological target: T2, SGK1 (Homo sapiens, UniProt O00141); experiment: ExpresS Diversity Kinase Profile, Cerep (LANCE): SGK1
T2 sequence (O00141 1-431): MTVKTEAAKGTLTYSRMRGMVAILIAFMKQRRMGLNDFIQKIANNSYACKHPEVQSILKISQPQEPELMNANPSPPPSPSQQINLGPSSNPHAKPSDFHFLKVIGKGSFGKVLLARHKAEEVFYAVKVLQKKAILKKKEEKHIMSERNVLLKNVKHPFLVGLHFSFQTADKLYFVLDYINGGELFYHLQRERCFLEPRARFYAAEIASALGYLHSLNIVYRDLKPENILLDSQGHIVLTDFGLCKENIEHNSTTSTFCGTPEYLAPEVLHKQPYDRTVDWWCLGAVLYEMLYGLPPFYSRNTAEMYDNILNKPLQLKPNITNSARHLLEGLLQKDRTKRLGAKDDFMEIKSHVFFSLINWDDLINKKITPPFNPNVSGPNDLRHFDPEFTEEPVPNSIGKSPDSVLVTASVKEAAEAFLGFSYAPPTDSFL

[6] = biological target: PAK2 (Homo sapiens, UniProt Q13177); experiment: ExpresS Diversity Kinase Profile, Cerep (LANCE): PAK2
Chain of PAK2 (Q13177 whole entry): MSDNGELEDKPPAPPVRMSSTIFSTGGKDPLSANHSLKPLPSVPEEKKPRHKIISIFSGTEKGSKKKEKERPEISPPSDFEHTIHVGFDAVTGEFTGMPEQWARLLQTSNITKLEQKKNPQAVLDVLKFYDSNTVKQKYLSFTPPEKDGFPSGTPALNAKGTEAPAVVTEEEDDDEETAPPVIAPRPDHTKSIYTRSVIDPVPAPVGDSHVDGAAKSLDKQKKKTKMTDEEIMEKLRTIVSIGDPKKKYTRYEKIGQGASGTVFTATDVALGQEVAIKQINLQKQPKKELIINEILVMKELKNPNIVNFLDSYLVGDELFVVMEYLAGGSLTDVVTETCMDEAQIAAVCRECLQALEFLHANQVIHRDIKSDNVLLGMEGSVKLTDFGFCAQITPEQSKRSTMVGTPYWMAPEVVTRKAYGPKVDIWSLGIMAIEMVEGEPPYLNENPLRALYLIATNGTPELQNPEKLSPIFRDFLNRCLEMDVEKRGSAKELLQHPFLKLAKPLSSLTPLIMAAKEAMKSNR

[7] = biological target: Src (Homo sapiens, UniProt P12931); experiment: ExpresS Diversity Kinase Profile, Cerep (LANCE): Src
Chain of Src (P12931 whole entry): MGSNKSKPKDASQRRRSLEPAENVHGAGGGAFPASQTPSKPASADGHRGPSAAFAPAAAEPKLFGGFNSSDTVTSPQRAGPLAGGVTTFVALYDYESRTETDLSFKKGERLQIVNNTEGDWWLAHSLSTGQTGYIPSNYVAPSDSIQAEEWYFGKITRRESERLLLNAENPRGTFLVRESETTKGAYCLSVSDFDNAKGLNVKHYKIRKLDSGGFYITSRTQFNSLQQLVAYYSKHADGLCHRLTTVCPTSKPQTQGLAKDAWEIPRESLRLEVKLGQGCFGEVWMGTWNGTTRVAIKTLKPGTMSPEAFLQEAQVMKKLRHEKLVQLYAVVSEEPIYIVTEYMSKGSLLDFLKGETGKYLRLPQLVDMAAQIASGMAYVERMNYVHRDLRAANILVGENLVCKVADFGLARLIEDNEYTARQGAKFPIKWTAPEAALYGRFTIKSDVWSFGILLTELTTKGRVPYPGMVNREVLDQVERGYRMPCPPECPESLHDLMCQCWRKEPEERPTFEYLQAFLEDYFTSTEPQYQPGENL

[8] = biological target: T3, CHK1 (Homo sapiens, UniProt O14757); experiment: ExpresS Diversity Kinase Profile, Cerep (LANCE): CHK1
T3 sequence (O14757 1-476): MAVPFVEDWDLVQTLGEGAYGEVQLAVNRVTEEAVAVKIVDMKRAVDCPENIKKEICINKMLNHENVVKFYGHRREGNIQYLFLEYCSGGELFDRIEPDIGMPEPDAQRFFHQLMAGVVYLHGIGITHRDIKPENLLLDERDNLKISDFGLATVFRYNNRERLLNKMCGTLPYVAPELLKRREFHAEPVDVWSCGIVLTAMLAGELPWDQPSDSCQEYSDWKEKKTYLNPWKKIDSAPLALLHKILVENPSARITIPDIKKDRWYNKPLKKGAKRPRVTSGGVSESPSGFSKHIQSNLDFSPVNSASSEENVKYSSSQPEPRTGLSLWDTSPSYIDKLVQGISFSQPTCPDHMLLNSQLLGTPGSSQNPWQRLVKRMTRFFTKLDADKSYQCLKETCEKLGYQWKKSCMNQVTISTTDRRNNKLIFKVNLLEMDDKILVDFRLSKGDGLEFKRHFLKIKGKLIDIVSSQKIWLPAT

[9] = biological target: c-Met (Homo sapiens, UniProt P08581); experiment: ExpresS Diversity Kinase Profile, Cerep (LANCE): c-Met
Chain of c-Met (P08581 25-1390): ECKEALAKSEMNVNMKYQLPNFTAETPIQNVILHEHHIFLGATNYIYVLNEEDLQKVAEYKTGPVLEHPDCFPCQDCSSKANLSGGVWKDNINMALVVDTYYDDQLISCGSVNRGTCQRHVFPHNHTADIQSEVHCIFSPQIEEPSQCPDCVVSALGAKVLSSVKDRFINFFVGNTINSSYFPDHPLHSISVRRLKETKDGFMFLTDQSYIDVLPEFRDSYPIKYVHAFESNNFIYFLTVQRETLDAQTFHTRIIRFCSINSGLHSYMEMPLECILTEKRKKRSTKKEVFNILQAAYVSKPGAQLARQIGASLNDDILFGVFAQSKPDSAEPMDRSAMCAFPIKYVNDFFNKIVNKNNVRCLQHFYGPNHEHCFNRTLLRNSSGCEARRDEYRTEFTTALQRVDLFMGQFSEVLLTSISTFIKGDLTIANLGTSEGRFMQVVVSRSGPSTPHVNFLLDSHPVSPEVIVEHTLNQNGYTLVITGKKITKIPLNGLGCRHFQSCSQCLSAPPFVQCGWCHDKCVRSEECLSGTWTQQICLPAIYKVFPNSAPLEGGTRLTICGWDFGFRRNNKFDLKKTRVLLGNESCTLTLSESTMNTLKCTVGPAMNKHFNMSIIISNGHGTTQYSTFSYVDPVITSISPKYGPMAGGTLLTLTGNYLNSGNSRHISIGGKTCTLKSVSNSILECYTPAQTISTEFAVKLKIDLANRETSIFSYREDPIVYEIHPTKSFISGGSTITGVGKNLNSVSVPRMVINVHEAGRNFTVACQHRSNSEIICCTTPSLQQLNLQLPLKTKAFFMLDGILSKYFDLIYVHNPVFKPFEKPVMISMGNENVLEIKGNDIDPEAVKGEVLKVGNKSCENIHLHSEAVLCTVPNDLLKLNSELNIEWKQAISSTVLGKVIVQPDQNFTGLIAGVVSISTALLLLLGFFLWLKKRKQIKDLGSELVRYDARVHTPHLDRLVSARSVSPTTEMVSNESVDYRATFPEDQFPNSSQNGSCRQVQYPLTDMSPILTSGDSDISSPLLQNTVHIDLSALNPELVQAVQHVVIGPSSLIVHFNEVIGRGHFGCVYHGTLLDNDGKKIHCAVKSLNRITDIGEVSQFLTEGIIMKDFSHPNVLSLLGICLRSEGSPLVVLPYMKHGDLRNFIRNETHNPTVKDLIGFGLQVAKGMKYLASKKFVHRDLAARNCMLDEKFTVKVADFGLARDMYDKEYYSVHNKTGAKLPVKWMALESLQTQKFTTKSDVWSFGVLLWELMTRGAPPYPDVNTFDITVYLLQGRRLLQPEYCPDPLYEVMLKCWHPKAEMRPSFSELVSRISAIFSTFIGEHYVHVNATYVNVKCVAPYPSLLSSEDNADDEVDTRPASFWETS

[10] = biological target: T4, EphB4 (Homo sapiens, UniProt P54760); experiment: ExpresS Diversity Kinase Profile, Cerep (LANCE): EphB4
T4 sequence (P54760 16-987): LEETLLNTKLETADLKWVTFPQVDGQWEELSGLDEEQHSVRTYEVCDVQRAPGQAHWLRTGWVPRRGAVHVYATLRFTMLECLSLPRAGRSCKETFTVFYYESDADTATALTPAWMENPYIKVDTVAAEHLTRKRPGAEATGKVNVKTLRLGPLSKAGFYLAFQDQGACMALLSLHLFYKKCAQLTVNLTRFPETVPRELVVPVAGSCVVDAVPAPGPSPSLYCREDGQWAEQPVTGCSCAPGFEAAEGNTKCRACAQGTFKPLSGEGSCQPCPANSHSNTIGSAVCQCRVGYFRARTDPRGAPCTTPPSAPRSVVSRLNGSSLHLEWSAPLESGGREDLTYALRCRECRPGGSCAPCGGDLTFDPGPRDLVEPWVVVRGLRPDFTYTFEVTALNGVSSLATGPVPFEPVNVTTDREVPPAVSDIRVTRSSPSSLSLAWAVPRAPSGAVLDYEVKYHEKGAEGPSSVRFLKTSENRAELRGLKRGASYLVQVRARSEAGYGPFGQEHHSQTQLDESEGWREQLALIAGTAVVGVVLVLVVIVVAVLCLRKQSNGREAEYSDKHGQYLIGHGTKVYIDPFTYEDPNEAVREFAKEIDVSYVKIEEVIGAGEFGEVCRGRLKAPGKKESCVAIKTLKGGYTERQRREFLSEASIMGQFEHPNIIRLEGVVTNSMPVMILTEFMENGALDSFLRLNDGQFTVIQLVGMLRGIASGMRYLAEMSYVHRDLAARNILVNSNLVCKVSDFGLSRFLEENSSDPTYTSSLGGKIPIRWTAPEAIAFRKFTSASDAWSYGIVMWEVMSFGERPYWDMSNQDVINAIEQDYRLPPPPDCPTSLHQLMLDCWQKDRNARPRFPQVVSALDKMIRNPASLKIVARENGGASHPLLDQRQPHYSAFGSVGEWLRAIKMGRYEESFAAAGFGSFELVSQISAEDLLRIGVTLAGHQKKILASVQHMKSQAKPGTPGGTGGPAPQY

[11] = n = 2, read-out: % Inhibition of control values, Mean
[12] = read-out: % Inhibition of control values, 1st measurement
[13] = read-out: % Inhibition of control values, 2nd measurement
[14] = Flag: Interference, read-out: % Inhibition of control values, 1st measurement
[15] = Flag: Interference, read-out: % Inhibition of control values, 2nd measurement
[16] = n = 2, Flag: Interference, read-out: % Inhibition of control values, Mean

Chain of IRK (P06213 28-1382): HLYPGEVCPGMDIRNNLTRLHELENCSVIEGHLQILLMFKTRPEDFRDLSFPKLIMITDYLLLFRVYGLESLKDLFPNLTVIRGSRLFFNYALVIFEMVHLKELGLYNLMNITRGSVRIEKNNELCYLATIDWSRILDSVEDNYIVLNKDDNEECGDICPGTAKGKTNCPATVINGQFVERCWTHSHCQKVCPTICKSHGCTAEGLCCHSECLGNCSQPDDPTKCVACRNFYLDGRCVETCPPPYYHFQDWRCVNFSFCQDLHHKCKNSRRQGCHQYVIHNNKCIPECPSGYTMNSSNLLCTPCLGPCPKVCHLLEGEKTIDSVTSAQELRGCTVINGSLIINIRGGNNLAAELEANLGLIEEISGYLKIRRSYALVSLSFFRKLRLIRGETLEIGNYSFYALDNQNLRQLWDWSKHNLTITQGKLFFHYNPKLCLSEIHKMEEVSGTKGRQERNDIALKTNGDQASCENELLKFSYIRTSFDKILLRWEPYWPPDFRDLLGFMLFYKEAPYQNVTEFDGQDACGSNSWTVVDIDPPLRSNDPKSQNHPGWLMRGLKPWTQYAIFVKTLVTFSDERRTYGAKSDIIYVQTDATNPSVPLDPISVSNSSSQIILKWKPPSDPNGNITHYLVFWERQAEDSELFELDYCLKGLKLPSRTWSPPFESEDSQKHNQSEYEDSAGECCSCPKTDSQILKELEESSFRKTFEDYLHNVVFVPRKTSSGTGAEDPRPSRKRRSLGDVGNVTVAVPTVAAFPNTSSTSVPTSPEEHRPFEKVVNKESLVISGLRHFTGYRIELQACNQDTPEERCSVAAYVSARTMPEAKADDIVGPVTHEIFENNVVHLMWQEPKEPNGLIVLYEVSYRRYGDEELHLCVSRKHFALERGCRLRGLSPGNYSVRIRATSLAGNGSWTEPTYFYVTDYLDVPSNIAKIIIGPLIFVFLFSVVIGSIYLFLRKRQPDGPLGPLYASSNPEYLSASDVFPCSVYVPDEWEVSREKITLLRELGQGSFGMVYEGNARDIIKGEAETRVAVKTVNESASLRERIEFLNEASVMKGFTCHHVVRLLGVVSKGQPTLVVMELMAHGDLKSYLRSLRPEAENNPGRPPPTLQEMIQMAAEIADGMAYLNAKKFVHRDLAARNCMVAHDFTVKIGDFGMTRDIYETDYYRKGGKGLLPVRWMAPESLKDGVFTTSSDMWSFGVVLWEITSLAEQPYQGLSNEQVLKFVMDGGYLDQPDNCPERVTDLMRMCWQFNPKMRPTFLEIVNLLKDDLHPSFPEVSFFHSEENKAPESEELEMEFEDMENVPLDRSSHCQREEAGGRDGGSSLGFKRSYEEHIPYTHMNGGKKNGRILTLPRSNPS

SMILES: CN[C@@H]1C[C@H]2O[C@@](C)([C@@H]1OC)n1c3ccccc3c3c4c(c5c6ccccc6n2c5c31)C(=O)NC4 [Staurosporine, reference compound]
- nHill ([1]; control): 1.0
- nHill ([2]; control): 1.8
- nHill ([3]; control): 2.5
- nHill ([4]; Akt/PKBα, control): 0.8
- nHill ([5]; control): > 3
- nHill ([6]; control): > 3
- nHill ([7]; control): 1.0
- nHill ([8]; control): 1.5
- nHill ([9]; control): 1.8
- nHill ([10]; control): 1.1

SMILES: CC1(C)CCC2=C(O1)c1ccccc1C(=O)C2=O [β-Lapachone]
- inhibition at 150 µM [1, 11]: 50.8%
- inhibition at 150 µM [1, 12]: 50.9%
- inhibition at 150 µM [1, 13]: 50.6%
- inhibition at 150 µM [2, 14]: 59.8%
- inhibition at 150 µM [2, 15]: 55.6%
- inhibition at 150 µM [2, 16]: 57.7%
- inhibition at 150 µM [3, 14]: -16.5%
- inhibition at 150 µM [3, 15]: 0.2%
- inhibition at 150 µM [3, 16]: -8.1%
- inhibition at 150 µM [4, 12]: 65.8%
- inhibition at 150 µM [4, 13]: 55%
- inhibition at 150 µM [4, 11]: 60.4%
- inhibition at 150 µM [5, 11]: 54.5%
- inhibition at 150 µM [5, 12]: 54.4%
- inhibition at 150 µM [5, 13]: 54.5%
- inhibition at 150 µM [6, 14]: -34%
- inhibition at 150 µM [6, 15]: 1.5%
- inhibition at 150 µM [6, 16]: -16.2%
- inhibition at 150 µM [7, 11]: 37.8%
- inhibition at 150 µM [7, 12]: 36.1%
- inhibition at 150 µM [7, 13]: 39.5%
- inhibition at 150 µM [8, 14]: 9.4%
- inhibition at 150 µM [8, 15]: 19.7%
- inhibition at 150 µM [8, 16]: 14.5%
- inhibition at 150 µM [9, 14]: 45.3%
- inhibition at 150 µM [9, 15]: 50.6%
- inhibition at 150 µM [9, 16]: 47.9%
- inhibition at 150 µM [10, 14]: 54.6%
- inhibition at 150 µM [10, 15]: 55.1%
- inhibition at 150 µM [10, 16]: 54.8%
